Assay results as given in patent US7858637B2, “Administration of TLR7 ligands and prodrugs thereof for treatment of infection by hepatitis C virus” (priority 2003, dated 2010).
Read-outs that look alike come from different tables or passages of the source.

Assays:
HCV = HCV viral load reduction in patients, intravenous isatoribine; type: in vivo, human; conditions: 800 mg QD×7 days IV infusion
Experimental: All doses were administered by constant rate infusion over a 60-minute period, except the 800 mg dose was administered over an 80-minute period. The flow rate for each dose was as follows: 3.33 mL/min for the 200 mg dose; 6.67 mL/min for the 400 mg dose; 8.33 mL/min for the 500 mg dose; or 10.0 mL/min for the 600 mg and 800 mg dose. Four to twelve patients were enrolled in each of the dose groups (200 mg, 400 mg, 600 mg and 800 mg per dose) and received once daily intravenous infusions for 7 days. Prior to dosing, a blood sample was drawn from each patient for assessment of the genotype of the HCV virus. […] The viral load was measured by the branched DNA method ([…]3.0 bDNA assay, Bayer Diagnostics). For plasma HCV RNA, the maximum change from the pre-treatment baseline was estimated using log-transformed values.

[1] = system: human peripheral blood mononuclear cells (PBMC); experiment: PBMC assay of interferon alpha release (masking); type: cell-based; conditions: Homo sapiens, PBMC; Table 9; 100 μM; 24 hours exposure; same blood donor; read-out: Amount of INFa relative to that induced by isatoribine at 100 μM
Experimental: A typical experiment would use human peripheral blood mononuclear cells (PBMC) isolated from a healthy donor and placed in replicate cell culture wells; typically, 2×10^6 to 5×10^6 cells are placed in each well. The PBMC are incubated in the absence of test compounds at 37° C. in a humidified atmosphere containing 5% CO2 for 24 hours to allow stabilization to the culture conditions, and then 100 micromolar isatoribine, the TLR7 ligand and a corresponding TLR7 ligand prodrug are added to separate wells containing PBMC from the same donor; untreated controls are included. The concentrations of TLR7 ligand and TLR7 ligand prodrug may be varied to suit the particular experiment, and the PBMC cultures are then incubated at 37° C. in a humidified atmosphere containing 5% CO2 for a period of time ranging from two hours to 48 hours. Samples of cell culture supernate media are taken during the incubation. These are assayed for cytokine production by ELISA. Additionally the amount of TLR7 ligand and TLR7 ligand prodrug remaining at the end of the incubation may be assayed by LC-MS. Cytokine production is calculated relative to production in the isatoribine control, following subtraction of the cytokine production in untreated controls.
Thus, if the TLR7 ligand generates more interferon alpha (a conveniently measured cytokine) than does the corresponding TLR7 ligand prodrug after a similar duration of exposure and concentration, the TLR7 ligand prodrug may be deemed a “masked” TLR7 ligand prodrug.

[2] = Toxicology studies, GI tolerance in beagle dogs; type: in vivo, beagle dog; conditions: dog, in vivo, iv
Text: We compared in the dog the oral toxicology of 21 and 24, and the intravenous toxicology of 21. We observed that the oral toxicology of 24 was much more like intravenous 21 than it was like oral 21.

HCV replicon = experiment: HCV replicon-based viral bioassay with supernatants of compound-treated PBMC; type: cell-based, hepatitis C virus
Experimental: A quantitative assay was developed which is based on measuring the activity of the luciferase reporter gene that was integrated into an HCV replicon. By using this system, interferons from TLR7 agonist-treated PBMCs were measured and their inhibitory activity was assessed using the luciferase reporter replicon.
Human PBMCs isolated from a healthy donor were placed in replicate cell culture wells (5×10^6 cells per well). The PBMCs are incubated in the absence of test compounds at 37° C. in a humidified atmosphere containing 5% CO2 for 24 hours to allow stabilization to the culture conditions, and then the TLR7 ligand or a drug free control is added to replicate wells containing PBMCs from the same donor. The concentrations of TLR7 ligand may be varied to suit the particular experiment, and the PBMC cultures are then incubated at 37° C. in a humidified atmosphere containing 5% CO2 for eight hours. Samples of cell culture supernatant are taken at the eight hour time point (or twenty four hour time point in case of Loxoribine and its prodrugs) from TLR7 ligand treated and control wells and are assayed for interferon-alpha production by ELISA. Supernatants from compound-treated cells and a no-drug control were diluted at 1:10, 1:100, and 1:1000 in RPMI media and applied to a 96-well plate of Huh7 hepatocyte cells containing the luciferase reporter replicon. Cells were incubated for 48 hours at 37° C. in a tissue culture incubator.
After the incubation period, the 96-well plates are washed 2× with PBS and are lysed with passive lysis buffer (Promega). Plates are shaken at room temperature for 20 minutes and standard luciferase assay reagent (Promega) is added to each well by injection and the plate is read on an Lmax luminometer (Molecular Devices).
A supernatant collected from PBMC cells non-exposed to the compound and diluted as specified in the first column was used as a control (“Blank supernatant”). The PBMC cells were isolated from a single blood donor as specified.

[3] = cited from earlier work

In the case of `Nc1nc2c(sc(=O)n2[C@@H]2O[C@H](CO)[C@@H](O)[C@H]2O)c(=O)[nH]1` [Compound 21, 7-thia-8-oxoguanosine], the “patients with plasma viral load decrease of more than 0.5 log 10 units” value (HCV) is reported as “Eight of 12”, the “mean change in plasma viral load (HCV RNA) from baseline” value (HCV; 12 patients) is reported as −0.76 log 10 units and the “range of change in plasma viral load (HCV RNA) from baseline” value (HCV; 12 patients) is reported as −2.85 to +0.21 log 10 units. The Emax at 100 µM [1] was 100%, the “Emesis or loose stool” value ([2]; 12.5 mg/kg) was “Neg” and the “GI lesions or irritation” value ([2]; 12.5 mg/kg) was “Neg”. The “Emesis or loose stool” value ([2]; 25 mg/kg) was “Neg”, the “GI lesions or irritation” value ([2]; 25 mg/kg) was “Neg” and the “Emesis or loose stool” value ([2]; 50 mg/kg) was “+”. The “GI lesions or irritation” value ([2]; 50 mg/kg) was “Neg”, the “Emesis or loose stool” value ([2]; 100 mg/kg) was “++” and the “GI lesions or irritation” value ([2]; 100 mg/kg) was “Neg”. The HCV replicon inhibition (HCV replicon; Table 3 No. 1, PBMC exposed 8 hours to 100 μM, donor FL72035, supernatant dilution 1:100) was 100%, the HCV replicon inhibition (HCV replicon; Table 3 No. 1, PBMC exposed 8 hours to 100 μM, donor FL72035, supernatant dilution 1:1000) was 94% and the HCV replicon inhibition (HCV replicon; Table 3 No. 2, PBMC exposed 8 hours to 100 μM, donor FL75287, supernatant dilution 1:10) was 100%. For the same compound, the HCV replicon inhibition (HCV replicon; Table 3 No. 2, PBMC exposed 8 hours to 100 μM, donor FL75287, supernatant dilution 1:100) was 87%, the HCV replicon inhibition (HCV replicon; Table 3 No. 2, PBMC exposed 8 hours to 100 μM, donor FL75287, supernatant dilution 1:1000) was 6% and the HCV replicon inhibition (HCV replicon; Table 3 No. 3, PBMC exposed 24 hours to 100 μM, donor FL75864, supernatant dilution 1:10) was 100%. The HCV replicon inhibition (HCV replicon; Table 3 No. 3, PBMC exposed 24 hours to 100 μM, donor FL75864, supernatant dilution 1:100) was 99%, the HCV replicon inhibition (HCV replicon; Table 3 No. 3, PBMC exposed 24 hours to 100 μM, donor FL75864, supernatant dilution 1:1000) was 64% and the “Emesis or loose stool” value ([3]; dog, in vivo, po, 2.5 mg/kg) was “Neg”. For the same compound, the “GI lesions or irritation” value ([3]; dog, in vivo, po, 2.5 mg/kg) was “Neg”, the “Emesis or loose stool” value ([3]; dog, in vivo, po, 5 mg/kg) was “+” and the “GI lesions or irritation” value ([3]; dog, in vivo, po, 5 mg/kg) was “Neg”. The “Emesis or loose stool” value ([3]; dog, in vivo, po, 10 mg/kg) was “++”, the “GI lesions or irritation” value ([3]; dog, in vivo, po, 10 mg/kg) was “++” and the “multiple, scattered red lesions on the intestinal mucosa (gross histopathologic evaluation of the GI tract)” value ([3]; dog, in vivo, po, 10 mg/kg) was “four of eight dogs”. For the same compound, the NOAEL ([3]; dogs, orally administered, established by the GI effects) was 5 mg/kg.
